Assay results taken from patent US20230303547A1, “N-CYANOPYRROLIDINES WITH ACTIVITY AS USP30 INHIBITORS” (MISSION THERAPEUTICS LIMITED, priority 2020, published 2023).
Read-outs that look alike come from different tables or passages of the source.

Tests used:
UCHL1 = UCHL1 (Homo sapiens (Human), UniProt P09936); assay: UCHL1 DUB IC50; type: biochemical; conditions: for DUB selectivity preference for USP30 v UCHL1: fold
USP30 = USP30 (Homo sapiens (Human), UniProt Q70CQ3); assay: USP30 biochemical IC50 assay (fluorescence polarisation)
Chain of USP30 (Q70CQ3 57-517): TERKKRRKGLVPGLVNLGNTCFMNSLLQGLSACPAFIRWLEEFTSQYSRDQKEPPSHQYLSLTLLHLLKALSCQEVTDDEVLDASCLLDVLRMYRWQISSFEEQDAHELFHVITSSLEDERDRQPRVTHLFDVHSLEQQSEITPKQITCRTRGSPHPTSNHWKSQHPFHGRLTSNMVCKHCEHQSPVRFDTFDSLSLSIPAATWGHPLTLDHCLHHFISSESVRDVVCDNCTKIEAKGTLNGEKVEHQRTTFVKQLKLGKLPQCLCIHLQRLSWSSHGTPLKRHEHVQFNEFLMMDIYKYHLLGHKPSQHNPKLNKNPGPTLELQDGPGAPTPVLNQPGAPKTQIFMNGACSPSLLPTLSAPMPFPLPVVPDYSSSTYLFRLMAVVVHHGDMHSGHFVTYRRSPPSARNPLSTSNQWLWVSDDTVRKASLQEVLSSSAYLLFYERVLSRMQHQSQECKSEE
Protocol: It is generally desirable to maximise the potency of a drug molecule against the target enzyme in relevant assays in order to lower the effective/efficacious dosage that is to be administered to patients. Compounds of the invention may be tested for USP30 affinity using the in vitro biochemical fluorescence polarization (FP) assay described herein.
Dilution plates were prepared at 21 times the final concentration (2100 µM for a final concentration of 100 µM) in 50% DMSO in a 96-well polypropylene V-bottom plate (Greiner #651201). A typical 8-point dilution series would be 100, 30, 10, 3, 1, 0.3, 0.1, 0.03 µM final. Reactions were performed in duplicate in black 384 well plates (small volume, Greiner 784076) in a final reaction volume of 21 µl. Either 1 µl of 50% DMSO or diluted compound was added to the plate. USP30 (Boston Biochem #E582) was diluted in reaction buffer (40 mM Tris, pH 7.5, 0.005% Tween 20, 0.5 mg/ml BSA, 5 mM beta-mercaptoethanol) to achieve a final assay concentration of 4 nM, and 10 µl of diluted USP30 was added to the compound. Enzyme and compound were incubated for 30 min at room temp. Reactions were initiated by the addition of 50 nM of TAMRA labelled peptide linked to ubiquitin via an iso-peptide bond as fluorescence polarisation substrate. Reactions were read immediately after addition of substrate and following a 2-hour incubation at room temperature. Readings were performed on a Pherastar Plus (BMG Labtech). λ Excitation 540 nm; λ Emission 590 nm.

Cathepsin L = Cathepsin L (Homo sapiens (Human), UniProt P07711); assay: Cathepsin L IC50; type: biochemical
Chain of Cathepsin L (P07711 114-333, species assumed): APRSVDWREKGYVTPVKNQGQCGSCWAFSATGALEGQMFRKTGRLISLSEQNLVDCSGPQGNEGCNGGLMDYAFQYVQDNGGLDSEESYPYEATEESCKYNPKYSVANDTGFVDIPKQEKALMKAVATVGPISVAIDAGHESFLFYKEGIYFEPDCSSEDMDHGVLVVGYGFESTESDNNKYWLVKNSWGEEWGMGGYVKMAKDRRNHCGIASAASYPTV

Cathepsin K = Cathepsin K (Homo sapiens (Human), UniProt P43235); assay: Cathepsin K IC50; type: biochemical
Chain of Cathepsin K (P43235 115-329, species assumed): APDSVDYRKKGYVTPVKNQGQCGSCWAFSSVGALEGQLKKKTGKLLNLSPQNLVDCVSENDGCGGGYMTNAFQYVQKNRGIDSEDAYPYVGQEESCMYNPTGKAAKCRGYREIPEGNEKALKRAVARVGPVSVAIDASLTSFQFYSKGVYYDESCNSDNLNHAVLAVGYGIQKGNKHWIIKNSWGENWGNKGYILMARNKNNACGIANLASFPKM

Cathepsin S = Cathepsin S (Homo sapiens (Human), UniProt P25774); assay: Cathepsin S IC50; type: biochemical
Chain of Cathepsin S (P25774 115-331, species assumed): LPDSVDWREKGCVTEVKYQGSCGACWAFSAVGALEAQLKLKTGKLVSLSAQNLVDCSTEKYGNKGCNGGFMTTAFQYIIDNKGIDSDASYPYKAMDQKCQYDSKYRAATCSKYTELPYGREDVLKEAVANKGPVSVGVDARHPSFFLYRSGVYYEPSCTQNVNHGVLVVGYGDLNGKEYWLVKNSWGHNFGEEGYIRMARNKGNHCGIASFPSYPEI

Cathepsin B = Cathepsin B (Homo sapiens (Human), UniProt P07858); assay: Cathepsin B IC50; type: biochemical
Cathepsin V = Cathepsin V (Homo sapiens (Human), UniProt O60911); assay: Cathepsin V IC50; type: biochemical
Chain of Cathepsin V (O60911 114-334, species assumed): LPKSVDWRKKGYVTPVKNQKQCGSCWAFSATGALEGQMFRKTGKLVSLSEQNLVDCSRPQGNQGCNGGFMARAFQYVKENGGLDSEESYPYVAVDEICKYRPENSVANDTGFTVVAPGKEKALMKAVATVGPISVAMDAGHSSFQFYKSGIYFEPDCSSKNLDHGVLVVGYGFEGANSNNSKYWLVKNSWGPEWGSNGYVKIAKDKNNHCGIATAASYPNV

[1] = test system: USP2, USP6, USP10, USP15, USP16, USP21, USP25, USP28, USP46/UAF1; assay: DUB selectivity panel IC50; type: biochemical; conditions: for DUB selectivity preference for USP30 v 9 DUBs: fold, minimum over nine DUBs; for IC50: range over the nine DUBs
[2] = test system: cathepsins (B, K, L, S and V); assay: Cathepsin panel summary; type: biochemical; conditions: for Selectivity preference for USP30 v cathepsins: fold; for IC50: summary over the five cathepsins
[3] = reference examples, USP30 biochemical IC50 assay, read-out: USP30 IC50
[4] = USP30 biochemical IC50 assay, read-out: IC50

Chain of UCHL1 (P09936 whole entry, species assumed): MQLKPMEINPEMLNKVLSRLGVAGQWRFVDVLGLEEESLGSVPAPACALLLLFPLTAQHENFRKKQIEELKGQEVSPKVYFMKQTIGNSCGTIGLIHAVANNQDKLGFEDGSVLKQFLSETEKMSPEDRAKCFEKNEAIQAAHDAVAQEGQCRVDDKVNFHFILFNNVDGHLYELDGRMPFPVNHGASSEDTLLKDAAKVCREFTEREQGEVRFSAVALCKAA

In the case of `N#Cc1ccc(-c2cnc(NC(=O)[C@H]3CCN(C#N)C3)s2)cc1OC(F)(F)F` [B, reference compound], the IC50 (UCHL1) is reported as 0.52 µM and the “DUB selectivity preference for USP30 v UCHL1” value (UCHL1) is reported as 3.0.
`COc1cc(-c2cnc(NC(=O)[C@H]3CCN(C#N)C3)s2)ccc1C#N` [C, reference compound] was tested, and the IC50 (UCHL1) was 0.21 µM, the “DUB selectivity preference for USP30 v UCHL1” value (UCHL1) was 1.3 and the IC50 (USP30; read-out: DUB IC50 USP30) was 160 nM. It also gave an IC50 (USP30; [3]) of 160 nM.
With `N#CN1CC[C@H](C(=O)Nc2ncc(-c3ccccc3)s2)C1` [D, reference compound] the “DUB selectivity preference for USP30 v UCHL1” value (UCHL1) was 0.8.
`COc1ccc(C#N)cc1-c1cnc(C(=O)N[C@@H]2C[C@@H](C)N(C#N)C2)o1` [Example 4, 5-(5-cyano-2-methoxyphenyl)-N-((3R,5R)-1-cyano-5-methylpyrrolidin-3-yl)oxazole-2-carboxamide] was tested, and the IC50 (UCHL1) was > 300 µM, the IC50 (Cathepsin L) was 294 µM and the IC50 (Cathepsin K) was 165 µM. For the same compound, the IC50 (Cathepsin S) was > 300 µM, the IC50 (Cathepsin B) was > 300 µM and the IC50 (Cathepsin V) was > 300 µM.
Work on `COC[C@@H]1C[C@@H](NC(=O)c2ncc(-c3cc(C#N)ccc3OC)o2)CN1C#N` [Example 5, 5-(5-cyano-2-methoxyphenyl)-N-((3R,5S)-1-cyano-5-(methoxymethyl)pyrrolidin-3-yl)oxazole-2-carboxamide] yielded an IC50 (USP30; [4]) of 3 nM.
For `COC[C@@H]1C[C@@H](NC(=O)c2nc(-c3cc(C#N)ccc3OC)co2)CN1C#N` [Example 6, 4-(5-cyano-2-methoxyphenyl)-N-((3R,5S)-1-cyano-5-(methoxymethyl)pyrrolidin-3-yl)oxazole-2-carboxamide], the “DUB selectivity preference for USP30 v 9 DUBs” value [1] was ≥ 700, the IC50 [1] was 1.4 to 258 µM and the IC50 (UCHL1) was > 300 µM. It also gave an IC50 (Cathepsin L) of 39.8 µM, an IC50 (USP30; [4]) of 2 nM and an IC50 (USP30; read-out: DUB IC50 USP30) of 2 nM. The IC50 (Cathepsin K) was 40.4 µM, the IC50 (Cathepsin S) was 64.8 µM and the IC50 (Cathepsin B) was 52.1 µM. For the same compound, the IC50 (Cathepsin V) was 91.6 µM, the “Selectivity preference for USP30 v cathepsins” value [2] was ≥ 19900 and the IC50 [2] was ≥ 39.8 µM.
`COC[C@@H]1C[C@@H](NC(=O)c2ncc(-c3cc(C#N)ccc3OC(F)(F)F)o2)CN1C#N` [Example 7, 5-(5-cyano-2-(trifluoromethoxy)phenyl)-N-((3R,5S)-1-cyano-5-(methoxymethyl)pyrrolidin-3-yl)oxazole-2-carboxamide] was tested, and the “DUB selectivity preference for USP30 v 9 DUBs” value [1] was ≥ 1333, the IC50 (UCHL1) was > 300 µM and the IC50 (Cathepsin L) was 13.8 µM. It also gave an IC50 (USP30; [4]) of 3 nM, an IC50 (USP30; read-out: DUB IC50 USP30) of 3 nM and an IC50 (Cathepsin K) of 14.9 µM. The IC50 (Cathepsin S) was > 30 µM, the IC50 (Cathepsin B) was 60.9 µM and the IC50 (Cathepsin V) was 12.1 µM. For the same compound, the “Selectivity preference for USP30 v cathepsins” value [2] was ≥ 4033 and the IC50 [2] was ≥ 12.1 µM.
In the case of `C[C@@H]1C[C@@H](NC(=O)c2ncc(-c3cc(C#N)ccc3OC(F)(F)F)o2)CN1C#N` [Example 8, 5-(5-cyano-2-(trifluoromethoxy)phenyl)-N-((3R,5R)-1-cyano-5-methylpyrrolidin-3-yl)oxazole-2-carboxamide], the IC50 (USP30; [4]) is reported as 4 nM.
In the case of `COc1cc(F)c(C#N)cc1-c1cnc(C(=O)N[C@@H]2C[C@@H](C)N(C#N)C2)o1` [Example 9, 5-(5-cyano-4-fluoro-2-methoxyphenyl)-N-((3R,5R)-1-cyano-5-methylpyrrolidin-3-yl)oxazole-2-carboxamide], the IC50 (USP30; [4]) is reported as 2 nM.
Work on `COC[C@@H]1C[C@@H](NC(=O)c2nc(-c3cc(C#N)ccc3OC3CC3)co2)CN1C#N` [Example 10, 4-(5-cyano-2-cyclopropoxyphenyl)-N-((3R,5S)-1-cyano-5-(methoxymethyl)pyrrolidin-3-yl)oxazole-2-carboxamide] yielded an IC50 (USP30; [4]) of 4 nM.
With `COC[C@H]1C[C@@H](NC(=O)c2ncc(-c3cc(C#N)ccc3OC3CC3)o2)CN1C#N` [Example 11, 5-(5-cyano-2-cyclopropoxyphenyl)-N-((3R,5R)-1-cyano-5-(methoxymethyl)pyrrolidin-3-yl)oxazole-2-carboxamide] the “DUB selectivity preference for USP30 v 9 DUBs” value [1] was ≥ 7820, the IC50 (UCHL1) was > 300 µM and the IC50 (Cathepsin L) was 15.4 µM. The IC50 (USP30; [4]) was 10 nM, the IC50 (Cathepsin K) was 100 µM and the IC50 (Cathepsin S) was 130 µM. For the same compound, the IC50 (Cathepsin B) was 83 µM, the IC50 (Cathepsin V) was > 100 µM and the “Selectivity preference for USP30 v cathepsins” value [2] was ≥ 1540. The IC50 [2] was ≥ 15.4 µM.
With `COC[C@H]1C[C@@H](NC(=O)c2nc(-c3cc(C#N)ccc3OC3CC3)co2)CN1C#N` [Example 12, 4-(5-cyano-2-cyclopropoxyphenyl)-N-((3R,5R)-1-cyano-5-(methoxymethyl)pyrrolidin-3-yl)oxazole-2-carboxamide] the “DUB selectivity preference for USP30 v 9 DUBs” value [1] was ≥ 110, the IC50 (UCHL1) was > 300 µM and the “DUB selectivity preference for USP30 v UCHL1” value (UCHL1) was “greater than 4412”. The “DUB selectivity preference for USP30 v UCHL1” value (UCHL1; listed as Ex. 12) was > 4412, the IC50 (Cathepsin L) was > 300 µM and the IC50 (USP30; [4]) was 68 nM. For the same compound, the IC50 (Cathepsin K) was > 300 µM, the IC50 (Cathepsin S) was > 300 µM and the IC50 (Cathepsin B) was > 300 µM. The IC50 (Cathepsin V) was 190 µM, the “Selectivity preference for USP30 v cathepsins” value [2] was ≥ 2788 and the IC50 [2] was ≥ 189 µM.
In the case of `COc1cccc(-c2cc(C(=O)N[C@@H]3CCN(C#N)C3)on2)c1` [Reference Example A, reference compound], the “DUB selectivity preference for USP30 v 9 DUBs” value [1] is reported as ≥ 2.2, the IC50 [1] is reported as 0.15 to 22.4 µM and the IC50 (Cathepsin L) is reported as 2.9 µM. For the same compound, the IC50 (USP30; read-out: DUB IC50 USP30) was 68 nM, the IC50 (USP30; [3]) was 68 nM and the “fold more potent against USP30 than against cathepsin K” value (Cathepsin K) was 11.6 fold. For the same compound, the “Selectivity preference for USP30 v cathepsins” value [2] was 11.6 - 129 and the IC50 [2] was 0.79 to 8.8 µM.
`CC1CC(C(=O)Nc2ncc(-c3ccccc3)s2)CN1C#N` (centres unmarked) [Reference Example E, reference compound] was tested, and the “DUB selectivity preference for USP30 v UCHL1” value (UCHL1) was 1.5.
